From US5856503A, “Aminoalkyl-substituted benzo-heterocyclic compounds” (Hoffmann-La Roche Inc., priority 1995, dated 1999) come the findings set out here.

One experiment relates to Candida albicans. As to the kind of experiment: Antifungal activity in vitro, C. albicans (microdilution). In kind it is cell-based. Particulars: 27° C. How it is done:
(§1) Antifungal activity in vitro The compounds were tested for antifungal activity against Candida albicans, Cryptococcus neoformans and Aspergillus fumigatus using a microdilution method on microtitre plates (96 wells per plate). Yeast supplemented with 1% glucose and 0.25% di-potassium phosphate was used for the three fungal strains. The fungal cells were inoculated at 3×10^4 CFU (Colony Forming Unit) in […] of medium per well. The medium contained increasing concentrations of test substance. After incubation at 27° C. for 24 or 48 hours the turbidity in each well was measured by a microtitre plate reader. The growth inhibition was calculated in comparison to (without test substance). The IC50 value given in the following Table is the concentration of test substance at which the growth is inhibited by 50%.

The subject of a further experiment is Cryptococcus neoformans. Put plainly: Antifungal activity in vitro, C. neoformans (microdilution). The class given is cell-based. Particulars: 48 hours, 27° C., read-out: IC50 for C. neoformans after 48 hours (growth inhibition). The method, then:
as §1

The test system of the next experiment is Aspergillus fumigatus. As to the kind of experiment: Antifungal activity in vitro, A. fumigatus (microdilution). The class given is cell-based. Particulars: 48 hours, 27° C., read-out: IC50 for A. fumigatus after 48 hours (growth inhibition). How it is done: as §1
Experiment [1] has as its target T1, human liver microsomal 2,3-oxidosqualene-lanosterol cyclase (OSC) (Homo sapiens, UniProt P48449).
T1 construct: Liver microsomes from a healthy volunteer were prepared in sodium phosphate buffer (pH 7.4); from tissue; host or cells: liver microsomes from a healthy human volunteer
T1 sequence (P48449 1-732): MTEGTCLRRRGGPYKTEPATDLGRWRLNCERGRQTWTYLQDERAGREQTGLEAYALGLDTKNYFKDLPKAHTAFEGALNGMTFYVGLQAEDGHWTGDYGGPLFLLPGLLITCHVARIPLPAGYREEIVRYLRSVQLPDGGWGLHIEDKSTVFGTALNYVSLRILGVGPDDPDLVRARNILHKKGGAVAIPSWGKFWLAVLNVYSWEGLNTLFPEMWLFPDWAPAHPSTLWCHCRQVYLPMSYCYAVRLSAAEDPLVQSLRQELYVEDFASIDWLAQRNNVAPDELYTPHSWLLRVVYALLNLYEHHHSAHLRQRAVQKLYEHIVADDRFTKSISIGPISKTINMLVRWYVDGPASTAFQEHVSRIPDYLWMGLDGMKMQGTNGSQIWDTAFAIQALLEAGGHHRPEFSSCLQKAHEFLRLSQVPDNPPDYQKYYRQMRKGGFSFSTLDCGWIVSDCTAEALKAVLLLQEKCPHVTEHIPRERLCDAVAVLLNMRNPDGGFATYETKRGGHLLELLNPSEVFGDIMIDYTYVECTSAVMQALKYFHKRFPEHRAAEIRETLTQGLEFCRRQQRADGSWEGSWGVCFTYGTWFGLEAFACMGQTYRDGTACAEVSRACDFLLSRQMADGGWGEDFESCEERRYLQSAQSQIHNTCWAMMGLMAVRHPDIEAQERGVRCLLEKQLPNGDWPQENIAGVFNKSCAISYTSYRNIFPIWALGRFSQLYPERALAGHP
As to the kind of experiment: Inhibition of human liver microsomal 2,3-oxidosqualene-lanosterol cyclase (OSC). In kind it is biochemical. The settings on record: for inhibition at 0.1 µM: 100 nM test substance, 1 hour at 37° C., against controls; for pIC50: pH 7.4, 1 hour at 37° C., read-out: IC50 (OSC, conversion of MOS into lanosterol). The method, then: Inhibition of human liver microsomal 2,3-oxidosqualene-lanosterol cyclase (OSC)
Liver microsomes from a healthy volunteer were prepared in sodium phosphate buffer (pH 7.4). The OSC activity was measured in the same buffer which also contained 1 mM EDTA and 1 mM dithiothreitol. The microsomes were diluted to 0.8 mg/ml protein in cold phosphate buffer. Dry [^14 C]R,S-monooxidosqualene (MOS; 12.8 μCi/mmol) was diluted to 20 nCi/μl with ethanol and mixed with phosphate buffer-1% BSA (Bovine Serum Albumin). A stock solution of 1 mM test substance in DMSO was diluted to the desired concentration with phosphate buffer-1% BSA. 40 μl of microsomes were mixed with 20 μl of the solution of the test substance and the reaction was subsequently started with 20 μl of the [^14 C]R,S-MOS solution. The final conditions were: 0.4 mg/ml of microsomal proteins and […] of [^14 C]R,S-MOS in phosphate buffer, pH 7.4, containing 0.5% albumin, DMSO <0.1% and ethanol <2%, in a total volume of 80 μl.
After 1 hour at 37° C. the reaction was stopped by the addition of 0.6 ml of 10% KOH-methanol, 0.7 ml of water and 0.1 ml of hexane:ether (1:1, v/v) which contained 25 μg of non-radioactive MOS and 25 μg of lanosterol as the carrier. After shaking 1 ml of hexane:ether (1:1, v/v) was added to each test tube, these were again shaken and then centrifuged. The upper phase was transferred into a glass test tube, the lower phase was again extracted with hexane:ether and combined with the first extract. The entire extract was evaporated to dryness with nitrogen, the residue was suspended in 50 μl of hexane:ether and applied to a silica gel plate. Chromatographic separation was effected in hexane:ether (1:1, v/v) as the eluent. […] After drying radioactive MOS and lanosterol were observed on the silica gel plate. The ratio of MOS to lanosterol was determined from the radioactive bands in order to determine the OSC inhibition.
The test was carried out on the one hand with a constant test substance concentration of 100 nM and the percentage OSC inhibition against controls was calculated. In addition, the test was carried out with different test substance concentrations and subsequently the IC50 value was calculated, i.e. the concentration required to reduce the conversion of MOS into lanosterol to 50% of the control value.

The nature of experiment [2]: Cholesterol lowering in fat-fed hamsters. The class given is in vivo, Male golden hamsters. The settings on record: 200 μmol (about 70-120 mg/kg/day) in diet, 10 days. How it is done: Cholesterol lowering in fat-fed hamsters
Male golden hamsters kept individually were pre-treated for 7 days with a diet containing grated coconut (40 cal. % fat). The animals were then divided into groups each comprising 5 animals. During the treatment the animals were maintained on the same diet. Each test substance was firstly homogenized in 9 ml of water and subsequently mixed with the milled diet. The controls received only feed converted into a paste with water. The animals were treated for 10 days with a test substance dosage of 200 μmol (about 70-120 mg/kg/day). Blood samples (200 μl) were removed via the jugular vein under light anaesthesia on the last day of the pretreatment and one day after the last administration of test substance. The plasma cholesterol concentration was determined using a colorimetric enzyme method. The plasma lipoproteins were separated by exclusion chromatography (Hennes et al., Science Tools, 36, 1992, 10-12). The total cholesterol was determined in each fraction using a fluorometric enzyme method (Gamble et al., J. Lipid Res., 19, 1978, 1068-1071) in order to calculate the amount of cholesterol in the LDL and HDL fractions. The activity on plasma cholesterol and LDL and HDL cholesterol, expressed in percent of the control animals, for the products of Examples 8a and 12 is reproduced in the following Table: […]

Setting [3] is: 24 hrs., read-out: IC50 for C. albicans after 24 hrs. (growth inhibition).
Where [4] appears, read: 48 hrs., read-out: IC50 for C. albicans after 48 hrs. (growth inhibition).

Molecules are shown by their SMILES. pIC50: −log10 of the molar value. Converted amounts (≈) assume the structure as drawn. Where two headings read alike, the source gives them in different places. Bounds are passed on as bounds.

In the case of `C=CCN(C)CCCCCCOc1ccc2c(c1)CCNC2c1ccc(Br)cc1` (racemic) [Example 21, (RS)-allyl-[6-[1-(4-bromo-phenyl)-1,2,3,4-tetrahydro-isoquinolin-6-yloxy]-hexyl]-methyl-amine], the IC50 in the experiment on Candida albicans (setting [3]) was less than 0.32 µg/mL; in the experiment on Candida albicans (setting [4]) it was 1.3 µg/mL (≈ 2.84 µM); in the experiment with Cryptococcus neoformans, less than 0.32 µg/mL; in the experiment with Aspergillus fumigatus, 4.1 µg/mL (≈ 8.96 µM).

For `C=CCN(C)CCCCCCOc1ccc2c(c1)N=CNC2c1ccc(Br)cc1` (racemic) [Example 34, (RS)-Allyl-[6-[4-(4-bromo-phenyl)-3,4-dihydro-quinazolin-7-yloxy]-hexyl]-methyl-amine], the IC50 in the experiment on Candida albicans (setting [3]) is 1.6 µg/mL (≈ 3.51 µM); with Candida albicans (setting [4]), 6.5 µg/mL (≈ 14.2 µM); in the experiment on Cryptococcus neoformans, less than 0.32 µg/mL; in the experiment with Aspergillus fumigatus, 3.9 µg/mL (≈ 8.54 µM).

The molecule `CN(CCCCCCOc1ccc2c(-c3ccc(Br)cc3)nccc2c1)C1CC1` [Example 24, [6-[1-(4-bromo-phenyl)-isoquinolin-6-yloxy]-hexyl]-cyclopropyl-methyl-amine] registered an inhibition at 0.1 µM in experiment [1] of 98%. In addition, in experiment [1], the negative logarithm of the IC50 (pIC50) was 8.80. The IC50 with Candida albicans (setting [3]) is less than 0.32 µg/mL; in the experiment on Candida albicans (setting [4]), 1.4 µg/mL (≈ 3.09 µM); in the experiment on Cryptococcus neoformans it was less than 0.32 µg/mL; in the experiment with Aspergillus fumigatus, 1.9 µg/mL (≈ 4.19 µM).

Take `C=CCN(C)CCCCCCOc1ccc2c(-c3ccc(Br)cc3)nsc2c1` [Example 1, allyl-[6-[3-(4-bromo-phenyl)-benzo[d]isothiazol-6-yloxy]-hexyl]-methyl-amine]: in experiment [1], the inhibition at 0.1 µM is 96% and the pIC50 was 8.48. Moreover, in experiment [2], the “HDL cholesterol (plasma, percent of control animals)” value was -27%; the “LDL cholesterol (plasma, percent of control animals)” value is -36%; the “Total cholesterol (plasma, percent of control animals)” value is -33%. In the experiment on Candida albicans (setting [3]), the IC50 was less than 0.32 µg/mL. In addition, the half-inhibitory concentration (IC50) in the experiment on Candida albicans (setting [4]) was 3.6 µg/mL (≈ 7.84 µM). The IC50 in the experiment with Cryptococcus neoformans is less than 0.32 µg/mL. Further, the 50% inhibitory concentration (IC50) in the experiment on Aspergillus fumigatus stood at 3.9 µg/mL (≈ 8.49 µM).
